Each block holds one molecule with its values, some of them ahead of it. Activity calls are given as the source filed them.
Experiments:
CAAX prenyl protease 2 [1] = target: T1, CAAX prenyl protease 2 (Saccharomyces cerevisiae S288c, UniProt Q03530); assay type: biochemical
T1 sequence (Q03530 whole entry): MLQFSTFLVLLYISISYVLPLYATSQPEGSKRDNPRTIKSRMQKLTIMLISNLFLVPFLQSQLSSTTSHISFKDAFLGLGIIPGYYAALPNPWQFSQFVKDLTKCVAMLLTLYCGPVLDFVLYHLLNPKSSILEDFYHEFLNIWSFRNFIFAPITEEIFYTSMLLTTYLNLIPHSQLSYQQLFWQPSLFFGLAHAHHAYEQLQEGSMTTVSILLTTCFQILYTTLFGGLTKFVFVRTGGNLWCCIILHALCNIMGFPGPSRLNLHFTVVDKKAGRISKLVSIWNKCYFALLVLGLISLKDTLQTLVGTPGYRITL

CAAX prenyl protease 2 [2] = target: T2, CAAX prenyl protease 2 (Homo sapiens, UniProt Q9Y256); assay: inhibition of Ras-converting CAAX protease Rce1 – biochemical, yeast membranes, quenched-peptide fluorescence, cherry-pick, dose response (AID 588849)
T2 sequence (Q9Y256 whole entry): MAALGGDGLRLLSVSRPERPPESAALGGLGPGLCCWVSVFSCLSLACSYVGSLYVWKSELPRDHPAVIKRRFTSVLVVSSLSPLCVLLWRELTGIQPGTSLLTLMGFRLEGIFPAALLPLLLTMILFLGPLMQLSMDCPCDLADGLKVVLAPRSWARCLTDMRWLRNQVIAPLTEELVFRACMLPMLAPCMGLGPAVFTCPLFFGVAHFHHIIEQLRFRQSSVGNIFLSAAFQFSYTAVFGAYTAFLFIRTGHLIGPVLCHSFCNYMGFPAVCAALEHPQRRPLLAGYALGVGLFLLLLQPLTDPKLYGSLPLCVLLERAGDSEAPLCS

[3] = target: T3, DNA repair protein RAD52 homolog (Homo sapiens, UniProt P43351); assay type: functional, biochemical
T3 sequence (P43351 whole entry): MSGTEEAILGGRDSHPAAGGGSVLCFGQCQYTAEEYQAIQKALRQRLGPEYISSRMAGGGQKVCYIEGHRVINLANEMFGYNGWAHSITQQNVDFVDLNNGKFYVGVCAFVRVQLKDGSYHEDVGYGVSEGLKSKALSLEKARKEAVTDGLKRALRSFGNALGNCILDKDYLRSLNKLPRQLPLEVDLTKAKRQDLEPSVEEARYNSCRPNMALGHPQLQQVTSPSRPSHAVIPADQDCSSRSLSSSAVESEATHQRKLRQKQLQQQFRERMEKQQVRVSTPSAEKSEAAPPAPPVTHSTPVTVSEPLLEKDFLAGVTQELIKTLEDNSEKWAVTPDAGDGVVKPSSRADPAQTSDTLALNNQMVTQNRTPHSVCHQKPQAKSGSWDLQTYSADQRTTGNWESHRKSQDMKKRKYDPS

[4] = target: T4, Histone-lysine N-methyltransferase NSD2 (Homo sapiens, UniProt O96028); assay type: biochemical
T4 sequence (O96028 whole entry): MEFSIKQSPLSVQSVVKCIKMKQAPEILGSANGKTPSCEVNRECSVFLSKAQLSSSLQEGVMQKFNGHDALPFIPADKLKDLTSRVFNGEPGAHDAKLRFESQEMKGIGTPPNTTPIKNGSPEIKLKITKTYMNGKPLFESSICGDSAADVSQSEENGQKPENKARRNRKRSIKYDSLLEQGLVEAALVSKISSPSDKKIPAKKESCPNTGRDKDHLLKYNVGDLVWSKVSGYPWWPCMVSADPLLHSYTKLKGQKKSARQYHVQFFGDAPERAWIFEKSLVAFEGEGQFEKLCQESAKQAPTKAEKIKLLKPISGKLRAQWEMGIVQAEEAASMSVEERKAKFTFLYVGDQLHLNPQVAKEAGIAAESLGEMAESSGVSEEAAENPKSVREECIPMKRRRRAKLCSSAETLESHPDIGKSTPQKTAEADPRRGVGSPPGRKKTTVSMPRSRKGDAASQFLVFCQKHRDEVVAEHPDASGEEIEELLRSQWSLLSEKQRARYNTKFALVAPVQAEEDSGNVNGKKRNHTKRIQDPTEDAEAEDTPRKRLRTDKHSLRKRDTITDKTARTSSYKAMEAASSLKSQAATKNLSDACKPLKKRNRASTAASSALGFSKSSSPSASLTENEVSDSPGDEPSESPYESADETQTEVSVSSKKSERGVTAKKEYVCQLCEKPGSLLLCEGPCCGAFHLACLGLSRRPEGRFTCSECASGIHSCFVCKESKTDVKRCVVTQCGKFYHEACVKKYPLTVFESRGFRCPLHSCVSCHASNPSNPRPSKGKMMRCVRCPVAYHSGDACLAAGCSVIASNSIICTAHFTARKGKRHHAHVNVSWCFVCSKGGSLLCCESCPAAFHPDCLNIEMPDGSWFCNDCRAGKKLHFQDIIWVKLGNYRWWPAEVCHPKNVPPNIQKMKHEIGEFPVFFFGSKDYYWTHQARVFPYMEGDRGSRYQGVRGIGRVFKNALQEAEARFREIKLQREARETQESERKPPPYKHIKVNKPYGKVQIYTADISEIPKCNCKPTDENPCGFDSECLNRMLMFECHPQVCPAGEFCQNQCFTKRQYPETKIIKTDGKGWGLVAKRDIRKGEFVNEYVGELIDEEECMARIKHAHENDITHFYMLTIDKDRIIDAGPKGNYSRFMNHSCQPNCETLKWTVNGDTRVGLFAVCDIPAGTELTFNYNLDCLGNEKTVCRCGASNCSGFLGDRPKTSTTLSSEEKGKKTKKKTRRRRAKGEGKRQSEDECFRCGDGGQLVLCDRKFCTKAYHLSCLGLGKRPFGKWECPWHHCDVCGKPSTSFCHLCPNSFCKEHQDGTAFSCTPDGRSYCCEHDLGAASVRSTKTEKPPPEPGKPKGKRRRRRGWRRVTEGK

Troponin, cardiac muscle = Troponin, cardiac muscle (Homo sapiens, UniProt P19429+P45379+P63316); assay: Fluorescence-based biochemical high throughput dose response assay for activators of the calcium sensitivity of cardiac Regulated Thin Filaments (RTF). [Related pubchem assays (depositor defined):AID493008, AID493018, AID504382, AID504383]; assay type: protein-complex assay
[5] = target: T5, High affinity choline transporter 1 (Homo sapiens, UniProt Q9GZV3); assay: human choline transporter blockers, potency – cell-based, 5-point CRC, membrane potential dye, dose response (AID 504840); assay type: functional
T5 sequence (Q9GZV3 whole entry): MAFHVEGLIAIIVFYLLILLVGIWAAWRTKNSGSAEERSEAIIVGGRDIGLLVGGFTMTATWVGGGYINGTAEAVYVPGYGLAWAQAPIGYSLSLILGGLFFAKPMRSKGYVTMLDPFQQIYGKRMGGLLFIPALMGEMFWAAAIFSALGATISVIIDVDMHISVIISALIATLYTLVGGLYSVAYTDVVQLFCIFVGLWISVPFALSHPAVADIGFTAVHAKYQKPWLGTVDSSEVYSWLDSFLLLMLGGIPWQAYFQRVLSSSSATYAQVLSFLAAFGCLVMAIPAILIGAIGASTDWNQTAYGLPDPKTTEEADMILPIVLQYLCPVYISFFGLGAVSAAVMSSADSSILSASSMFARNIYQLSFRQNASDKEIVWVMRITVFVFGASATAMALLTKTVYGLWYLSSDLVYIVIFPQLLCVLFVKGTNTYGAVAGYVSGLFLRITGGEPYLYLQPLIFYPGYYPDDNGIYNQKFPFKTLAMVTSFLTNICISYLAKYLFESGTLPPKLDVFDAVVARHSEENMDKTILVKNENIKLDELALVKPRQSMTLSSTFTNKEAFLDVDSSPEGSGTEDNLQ

[6] = target: T5, High affinity choline transporter 1; assay: human choline transporter blockers, potency – cell-based, 10-point CRC, membrane potential dye, dose response (AID 588401); assay type: functional;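 further: membrane potential dye fluorescence of choline-evoked depolarization via CHT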
[7] = target: T6, Polyadenylate-binding protein 1 (Homo sapiens, UniProt P11940); assay: MLLE binding blockers, Cy5 peptide tracer – biochemical, fluorescence polarization, Cy5-PAM2 peptide, secondary, miRNA deadenylation inhibitor project, dose response (AID 602260); assay type: functional; conditions: read-out: IC50_Mean
T6 sequence (P11940 whole entry, the tested form may be a part): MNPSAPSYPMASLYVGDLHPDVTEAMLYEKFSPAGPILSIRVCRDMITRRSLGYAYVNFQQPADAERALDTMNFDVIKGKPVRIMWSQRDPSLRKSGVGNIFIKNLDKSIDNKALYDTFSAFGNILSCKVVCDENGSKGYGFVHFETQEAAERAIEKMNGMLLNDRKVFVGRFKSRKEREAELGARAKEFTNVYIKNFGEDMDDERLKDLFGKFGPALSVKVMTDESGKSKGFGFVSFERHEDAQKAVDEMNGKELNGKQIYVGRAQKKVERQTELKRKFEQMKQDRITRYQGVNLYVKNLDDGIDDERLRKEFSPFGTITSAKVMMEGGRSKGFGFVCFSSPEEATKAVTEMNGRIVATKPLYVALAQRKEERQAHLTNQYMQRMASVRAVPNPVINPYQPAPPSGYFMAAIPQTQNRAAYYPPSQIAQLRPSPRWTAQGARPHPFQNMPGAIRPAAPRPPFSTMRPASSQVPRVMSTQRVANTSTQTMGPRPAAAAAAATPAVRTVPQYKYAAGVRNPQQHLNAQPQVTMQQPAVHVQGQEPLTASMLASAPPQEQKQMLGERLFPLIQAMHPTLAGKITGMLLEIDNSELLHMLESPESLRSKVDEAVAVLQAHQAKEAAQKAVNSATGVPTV

[8] = target: T6, Polyadenylate-binding protein 1; assay: MLLE domain peptide-binding blockers, IC50 – biochemical, fluorescence polarization, FITC-PAM2 peptide, dose response (AID 602259); assay type: functional; conditions: read-out: IC50_Mean
[9] = target: Heat shock protein HSP 90-alpha (Homo sapiens, UniProt P07900); assay type: functional, organism-based
[10] = target: T7, Rac GTPase-activating protein 1 (Homo sapiens, UniProt Q9H0H5); assay: blockers of MgcRacGAP-driven Rac1 GTP hydrolysis – biochemical, ADP Hunter fluorescence, primary and confirmatory, confirmation (AID 624330); assay type: functional
T7 sequence (Q9H0H5 whole entry): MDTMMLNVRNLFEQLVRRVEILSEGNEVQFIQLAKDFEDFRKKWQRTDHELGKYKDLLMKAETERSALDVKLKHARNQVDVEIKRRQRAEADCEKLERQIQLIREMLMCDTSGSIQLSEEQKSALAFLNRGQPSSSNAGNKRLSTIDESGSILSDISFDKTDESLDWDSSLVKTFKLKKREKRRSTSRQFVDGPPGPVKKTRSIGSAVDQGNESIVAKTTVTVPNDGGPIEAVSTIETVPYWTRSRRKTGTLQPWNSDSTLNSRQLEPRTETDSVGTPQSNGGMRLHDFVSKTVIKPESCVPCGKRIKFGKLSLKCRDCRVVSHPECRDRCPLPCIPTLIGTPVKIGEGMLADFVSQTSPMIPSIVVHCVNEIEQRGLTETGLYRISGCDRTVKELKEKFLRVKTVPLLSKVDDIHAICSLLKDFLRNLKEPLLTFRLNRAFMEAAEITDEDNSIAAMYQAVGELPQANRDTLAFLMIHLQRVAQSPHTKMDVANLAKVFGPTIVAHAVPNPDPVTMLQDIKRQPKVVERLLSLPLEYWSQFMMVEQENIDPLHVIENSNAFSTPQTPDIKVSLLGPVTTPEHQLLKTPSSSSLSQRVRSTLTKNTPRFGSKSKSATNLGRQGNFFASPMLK

[11] = target: Melanin-concentrating hormone receptor 1 (Homo sapiens, UniProt Q99705); assay: Late-stage fluorescence-based counterscreen for antagonists of the G-protein coupled receptor 7 (GPR7): cell-based dose response assay to identify antagonists of the melanin-concentrating hormone receptor 1 (MCHR1) Set 5.; assay type: functional
Sequence of Melanin-concentrating hormone receptor 1 (Q99705 whole entry): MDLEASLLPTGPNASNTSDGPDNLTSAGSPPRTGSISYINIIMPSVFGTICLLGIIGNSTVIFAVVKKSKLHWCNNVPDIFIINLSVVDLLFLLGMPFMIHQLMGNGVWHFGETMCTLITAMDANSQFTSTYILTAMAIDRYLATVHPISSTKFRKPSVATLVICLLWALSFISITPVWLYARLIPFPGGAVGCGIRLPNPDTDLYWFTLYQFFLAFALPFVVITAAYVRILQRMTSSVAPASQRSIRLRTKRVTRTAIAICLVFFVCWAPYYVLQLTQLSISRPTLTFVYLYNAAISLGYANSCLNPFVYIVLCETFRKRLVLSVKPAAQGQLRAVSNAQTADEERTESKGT

[12] = target: T8, Apoptotic protease-activating factor 1 (Homo sapiens, UniProt O14727); assay: SAR analysis of small molecule Activators of Apaf-1 in a Fluorescent assay.; assay type: functional; conditions: read-out: EC50_Mean;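 further: caspase-3 cleavage of fluorogenic Rh110 DEVD substrate downstream of apoptosome activation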
T8 sequence (O14727 whole entry): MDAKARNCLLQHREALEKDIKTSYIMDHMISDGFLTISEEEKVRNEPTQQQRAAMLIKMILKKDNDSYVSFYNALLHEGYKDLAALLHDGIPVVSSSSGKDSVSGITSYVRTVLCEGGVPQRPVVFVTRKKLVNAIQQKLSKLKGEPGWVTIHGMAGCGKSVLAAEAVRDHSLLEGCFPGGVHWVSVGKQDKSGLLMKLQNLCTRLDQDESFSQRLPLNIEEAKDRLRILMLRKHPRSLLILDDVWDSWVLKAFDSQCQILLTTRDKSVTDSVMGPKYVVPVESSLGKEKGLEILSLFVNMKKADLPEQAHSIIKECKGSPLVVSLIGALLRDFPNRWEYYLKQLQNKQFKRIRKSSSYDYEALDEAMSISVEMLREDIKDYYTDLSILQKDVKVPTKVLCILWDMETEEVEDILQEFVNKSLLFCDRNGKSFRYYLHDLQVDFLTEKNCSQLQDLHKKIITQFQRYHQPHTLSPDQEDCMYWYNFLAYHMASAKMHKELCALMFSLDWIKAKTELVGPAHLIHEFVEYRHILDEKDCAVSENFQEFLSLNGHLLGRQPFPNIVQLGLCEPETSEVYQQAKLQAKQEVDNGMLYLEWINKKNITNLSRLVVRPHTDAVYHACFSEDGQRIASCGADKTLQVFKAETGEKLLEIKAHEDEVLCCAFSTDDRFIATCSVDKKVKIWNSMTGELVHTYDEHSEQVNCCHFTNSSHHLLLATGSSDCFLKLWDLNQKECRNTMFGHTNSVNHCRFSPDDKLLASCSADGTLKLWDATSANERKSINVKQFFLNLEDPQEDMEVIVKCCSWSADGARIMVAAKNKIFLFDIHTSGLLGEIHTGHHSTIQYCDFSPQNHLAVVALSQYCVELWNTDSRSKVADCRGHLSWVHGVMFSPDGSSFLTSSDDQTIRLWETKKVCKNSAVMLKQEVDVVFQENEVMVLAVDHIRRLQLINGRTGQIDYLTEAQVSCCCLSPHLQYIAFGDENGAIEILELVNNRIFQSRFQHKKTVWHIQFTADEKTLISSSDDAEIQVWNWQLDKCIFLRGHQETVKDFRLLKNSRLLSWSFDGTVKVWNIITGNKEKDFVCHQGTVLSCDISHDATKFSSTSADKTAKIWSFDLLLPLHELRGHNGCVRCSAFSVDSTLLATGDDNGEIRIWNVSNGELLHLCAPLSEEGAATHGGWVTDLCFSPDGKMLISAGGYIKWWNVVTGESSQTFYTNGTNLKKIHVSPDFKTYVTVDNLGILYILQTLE

Structure (SMILES): CCN(CC)CCCN(Cc1cc2cc3c(cc2[nH]c1=O)OCO3)C(=S)NCCCN(C)C
AC50 (CAAX prenyl protease 2 [1]): 16.4 µM (active)
AC50 (CAAX prenyl protease 2 [2]): 10.5 µM (active)
AC50 [3]: 5.22 µM (active)
AC50 [4]: 9.07 µM (active)

Structure (SMILES): CN1c2ccccc2C(O)=C(C(S)=Nc2ccc(F)c(Cl)c2)S1(=O)=O
EC50 (Troponin, cardiac muscle): > 71.5 µM (inactive)
IC50 [5]: 4.79 µM (active)
IC50 [6]: 3.55 µM (active)
IC50 [7]: > 66 µM (inactive)
IC50 [8]: > 66 µM (inactive)

Structure (SMILES): COc1cc(Oc2c(Cl)cnn(Cc3cccc4ccccc34)c2=O)cc(OC)c1OC
IC50 [11]: 3.22 µM (active)

Structure (SMILES): O=C1CC2(CC(c3ccc(F)cc3)=NO2)C(=O)N1c1cccc(Cl)c1 (centres undefined)
EC50 [12]: > 100 µM (inactive)

Now from value to molecule:

IC50 [5]: 10.5 µM (active)
IC50 [6]: 11.2 µM (active)
Structure (SMILES): CCC(Oc1ccccc1)C(=O)Nc1ccc(S(=O)(=O)NCC2CCCO2)cc1 (centres undefined)

IC50 [5]: 6.92 µM (active)
IC50 [6]: 3.36 µM (active)
Structure (SMILES): O=C(NCC(c1ccco1)N1CCCCC1)c1cccc(NS(=O)(=O)c2ccc(Br)cc2)c1 (centres undefined)

AC50 [9]: 2.2 µM (active)
IC50 [10]: 76 µM (active)
Structure (SMILES): O=[S@]1Oc2ccccc2-c2ccccc21

IC50 [11]: 0.707 µM (active)
Structure (SMILES): COc1ccc(Oc2c(Cl)cnn(-c3nc4ccccc4c(=O)c4ccccc34)c2=O)cc1

EC50 [12]: > 100 µM (inactive)
Structure (SMILES): COc1cc(Cl)c(C)cc1NC(=O)CCS(=O)(=O)c1ccc(Cl)cc1
